According to article PMC5732773, “Metabolism, pharmacokinetics, and bioavailability of ZB716, a Steroidal Selective Estrogen Receptor Downregulator (SERD)” (Oncotarget, 2017):
Where two headings read alike, the source gives them in different places.

Experiments:
[1] = set-up: method as in PMID 27529700, PMID 29467940; settings: cited from earlier work
[2] = set-up: method as in PMID 12490735; settings: second line therapy in the metastatic setting; cited from earlier work
[3] = Sulfation in rat liver cytosol with PAPS
Protocol: Sulfate conjugation is enabled by sulfotransferases in the presence of the cofactor 3'-phosphoadenosine-5'-phosphosulfate (PAPS).
The pre-incubation solution was prepared by adding 13.5 μL 1 M pH=7.5 Tris-HCl buffer, 247.5 μL water, 6 μL 1 mM 3'-Phosphoadenosine-5'-phosphosulfate (PAPS) from R&D Systems, 30 μL (10 mg/mL) cytosolic protein from Corning Gentest into a 1.5 mL microcentrifuge. The mixtures were incubated at 37°C for 5 min in an incubator. Then 3 μL of 10 mM ZB716 was added, mixed, and incubated at 37°C for 60 min in the incubator. After incubation, 300 μL MeOH was added to terminate the reaction. The final mixture was then -centrifuged at 10,000×g for 4 min at 4 °C. The supernatant was analyzed by the UHPLC-Q-Exactive instrument.
The Q-Exactive mass spectrometer was coupled to a UHPLC ultimate 3000 (Dionex) using a C-18 column (1.8 μm, 2.1 mm x 50 mm). The gradient started from 30% mobile phase B (acetonitrile with 0.05% formic acid) for 1 min, increased to 100% B in 4.5 min, held for 5 min, then decreased back to 30% B and held for 5 min. Mobile phase A was water with 0.05% formic acid. The flow rate was controlled at 0.3 mL/min. PRM mode was used to obtain the fragment patterns for metabolites with the setting of MS2 resolution of 17500, AGC target of 1e5, maximum IJ of 100 ms, NCE setting of 35. […]

[4] = ZB716 and metabolites in rat feces after oral dosing; settings: for share measured in feces after 72 hours: oral ZB716, after 72 h
Protocol: (§1) Female Sprague-Dawley rats, weighing between 350 and 400 g (Charles River Laboratories, Portage, MI), were used for this study on ZB716. Oral gavages containing ZB716 were formulated in 5% dimethyl sulfoxide (DMSO), 40% polyethylene glycol 400, and 55% saline. Rats were housed in metabolic cages for collection of urine and feces samples after oral administration of ZB716 at a dose of 5 or 10 mg/kg. […] Urine and feces were collected for the durations of 0-1h, 1-3h, 3-6h, 6-8h, 8-24h, 24-48h, 48-72h, 72-96h, and 96-120 h after drug administration.
The internal standard of trans-tamoxifen-13C2,15N (0.5 ng/μL in methanol) was added to the feces samples at 10 ng/g feces based on the weight of the feces collected. Feces samples were homogenized with a Power Gen 125 homogenizer (Fisher Scientific) in the mixture of chloroform/methanol (2:1, v:v) and stored at -20 °C overnight. After sonicating for 30 min, the samples were centrifuged with a Heraeus Megafuge16R centrifuge at 3000 RPM. The supernatant was dried with nitrogen gas at room temperature and resuspended with corresponding amount of methanol (200 μL methanol/g feces) for injection on the UHPLC-Q-Exactive instrument.
(§2) The Q-Exactive mass spectrometer was coupled to a UHPLC ultimate 3000 (Dionex) using a C-18 column (1.8 μm, 2.1 mm x 50 mm). The gradient started from 30% mobile phase B (acetonitrile with 0.05% formic acid) for 1 min, increased to 100% B in 4.5 min, held for 5 min, then decreased back to 30% B and held for 5 min. Mobile phase A was water with 0.05% formic acid. The flow rate was controlled at 0.3 mL/min. PRM mode was used to obtain the fragment patterns for metabolites with the setting of MS2 resolution of 17500, AGC target of 1e5, maximum IJ of 100 ms, NCE setting of 35. The heated ESI probe setting was set as sheath gas at 30 psi, auxiliary gas at 8 psi, spray voltage at 2500V, capillary temperature at 280°C, S-lens RF level at 50, and auxiliary gas heater temperature at 300°C.
Concentrated stock solutions of ZB716 and fulvestrant were prepared at 1 mM in methanol. The stock solution of the internal standard (trans-tamoxifen-13C2,15N) was prepared at 1000 ng/μL in methanol.

[5] = ZB716 and metabolites in rat urine after oral dosing; settings: for share in urine accounted for in urinary excretion 72 hours after oral dosage: oral ZB716, after 72 h
Description: Urine samples were subjected to the same HPLC-MS/MS analysis to identify ZB716 and any possible metabolites over a time course post oral administration. […] Again, quantitation was only possible with ZB716 and fulvestrant for which standard calibration curves were established.
as §1
Urine samples were thawed at room temperature and vortaxed. 200 μL of the sample was transferred to a 1.5 mL Eppendorf microcentrifuge tube followed by adding 10 μL of the 0.5 ng/μL trans-tamoxifen-13C2,15N in methanol solution and 200 μL methanol. After Vortaxing and centrifuging, the sample was injected into the UHPLC-Q-Exactive instrument for analysis.
as §2
(§3) Concentrated stock solutions of ZB716 and fulvestrant were prepared at 1 mM in methanol. The stock solution of the internal standard (trans-tamoxifen-13C2,15N) was prepared at 1000 ng/μL in methanol. The above stock solutions were kept at -20°C until use. The working solutions of ZB716 and fulvestrant were prepared at 100 μM in methanol. The working solution of the internal standard trans-tamoxifen-13C2, 15N was prepared at 5 ng/μL and 0.5 ng/ μL in methanol, respectively. Working solutions at various concentrations were prepared by diluting their corresponding stock solution with methanol. Calibration standards quality control solutions were prepared over a range of five orders of magnitude.

[6] = Oxidative metabolism of ZB716 in rat liver microsomes with NADPH; settings: ZB716 with rat liver microsome and NADPH, 1 hour
Protocol: By incubating ZB716 with rat liver microsome in the presence of NADPH for 1 hour, the cytochrome P450 enzymes in the microsomes were allowed to oxidize ZB716 under aerobic conditions.
NADPH solution A contains NADP+ and Glucose 6-phosphate. NADPH solution B contains Glucose-6-phosphate dehydrogenase, which is necessary for NADPH regeneration. The pre-incubation solution was prepared by adding 30 μL of potassium phosphate buffer (pH 7.4; 10x), 241.5 μL water, 15μL of NADPH solution A, 3 μL of NADPH solution B, and 7.5 μL rat liver microsomes from Corning Gentest into a 1.5 mL microcentrifuge tube. The mixtures were incubated at 37°C for 5 min in an incubator. Then 3 μL of 10 mM ZB716 was added, mixed, and incubated at 37°C for 60 min in the incubator. After incubation, 300 μL MeOH was added to terminate the reaction. The final mixture was then centrifuged at 10,000×g for 4 min at 4°C. The supernatant was analyzed by UHPLC-HRMS (Thermo Q-Exactive).
The Q-Exactive mass spectrometer was coupled to a UHPLC ultimate 3000 (Dionex) using a C-18 column (1.8 μm, 2.1 mm x 50 mm). The gradient started from 30% mobile phase B (acetonitrile with 0.05% formic acid) for 1 min, increased to 100% B in 4.5 min, held for 5 min, then decreased back to 30% B and held for 5 min. Mobile phase A was water with 0.05% formic acid. The flow rate was controlled at 0.3 mL/min. […]

[7] = Glucuronidation in liver microsomes with UGT reaction mix (UDPGA); settings: fulvestrant incubated with liver microsomes and UDPGA
Protocol: The pre-incubation solution was prepared by adding 205.5 μL water, 24 μL of UGT Reaction Mix solution A, 60μL of UGT Reaction Mix solution B, 7.5 μL rat liver microsomes from Corning Gentest into a 1.5 mL microcentrifuge. The mixtures were incubated at 37°C for 5 min in an incubator. Then 3 μL of 10mM ZB716 was added, mixed, and incubated at 37°C for 60 min in the incubator. After incubation, 300 μL MeOH was added to terminate the reaction. The final mixture was then centrifuged at 10,000× g for 4 min at 4 °C. The supernatant was analyzed by the UHPLC-Q-Exactive instrument.
as §2

[8] = Metabolism and pharmacokinetics of ZB716 in rat plasma after oral dosing
Protocol: The same PRM approach was used to identify the metabolites of ZB716 in rat plasma collected at various time points after a single oral dose of 10 mg/kg. […] The pharmacokinetics parameters were calculated using a noncompartment extravascular model (Table 3).
Female Sprague-Dawley rats, weighing between 350 and 400 g (Charles River Laboratories, Portage, MI), were used for this study on ZB716. Oral gavages containing ZB716 were formulated in 5% dimethyl sulfoxide (DMSO), 40% polyethylene glycol 400, and 55% saline. Rats were housed in metabolic cages for collection of urine and feces samples after oral administration of ZB716 at a dose of 5 or 10 mg/kg. […] Urine and feces were collected for the durations of 0-1h, 1-3h, 3-6h, 6-8h, 8-24h, 24-48h, 48-72h, 72-96h, and 96-120 h after drug administration. Blood samples were collected from the lateral tail vein of the rats at 5 min, 15 min, 30 min, 1 h, 3 h, 6 h, 8 h, 24 h, and 48 h time points after drug administration. Rat blood was collected with a capillary into 1.5 mL microcentrifuge tubes containing 0.01 mL of 10 % EDTA anticoagulant. Plasma was then separated from cell pellets by centrifugation in a refrigerated centrifuge at 4 °C and transferred to a separate tube. Plasma samples were frozen at -80 °C until analysis.
Plasma samples (100 μL) were extracted using a modified Folch method for lipid extraction. Internal standard (10 μL 0.5 ng/μL trans-tamoxifen-13C2,15N in methanol), methanol (0.5 mL) and chloroform (1 mL) were added to each plasma sample. The mixtures were stored at −20 °C overnight. Samples were sonicated for 10 min and then centrifuged with a Thermo Scientific Heraeus Megafuge16 centrifuge. The top liquid layer was transferred to another test tube. The bottom residual layer was washed with 0.5 mL of chloroform/methanol (2:1), centrifuged, and the top layer was transferred and combined with the previous top layer. The mixture was dried out with nitrogen at room-temperature and re-suspended in 100 μL of HPLC grade methanol for injection.
as §2, §3

[9] = system: UGT1A1, -1A3, -1A4, and -1A8; settings: predominant site 3-hydroxyl; cited from earlier work
[10] = female, Sprague-Dawley, rat, plasma, po, 10 mg/kg

## C[C@]12CC[C@@H]3c4ccc(O)cc4C[C@@H](CCCCCCCCC[S+]([O-])CCCC(F)(F)C(F)(F)F)[C@H]3[C@@H]1CC[C@@H]2O (stereo partly drawn) [Fulvestrant, reference compound]
[1]; animals, similar dosage via s.c. injection
  peak plasma concentration: 20 ng/mL
[2]
  clinical response rate: below 20%
[3]; fulvestrant incubated with rat liver cytosol
  site of sulfation: predominantly at 3-position
[4]; rat feces after single oral dose of ZB716, + detected, - not detected
  detected in rat feces: detected
[4]; rat
  share measured in feces after 72 hours: Less than 1%
[4]; rat, oral ZB716, metabolite fulvestrant, before 72 h
  fulvestrant excreted in feces before 72 h: 69.2%
[5]; rat urine after oral administration of ZB716, + detected, - not detected
  detected in rat urine: detected
[5]; rat
  share in urine accounted for in urinary excretion 72 hours after oral dosage: less than 1%
[5]; rat, oral ZB716, metabolite fulvestrant, first 48 h
  share of all fulvestrant found in urine excreted in the first 48 hours: 97.6%
[6]
  oxidative metabolite of ZB716 identified in incubation mixture: identified
[7]
  site of glucuronidation: primarily at 3-OH
[8]; rat plasma after single oral dose of ZB716 10 mg/kg, + detected, - not detected
  detected in rat plasma: identified

## C[C@]12CC[C@@H]3c4ccc(B(O)O)cc4C[C@@H](CCCCCCCCC[S+]([O-])CCCC(F)(F)C(F)(F)F)[C@H]3[C@@H]1CC[C@@H]2O (stereo partly drawn) [ZB716]
[1]; mice and rats, oral administration at 10 mg/kg
  peak plasma concentration: > 100 ng/mL
[3]; ZB716 with rat liver cytosol and PAPS
  number of sulfate conjugation products observed: three
[4]; rat
  share measured in feces after 72 hours: Less than 1%
[4]; rat, oral, 0-24 h
  share of total ZB716 present in feces excreted in 24 hours: 80.7%
[4]; rat, oral, 24-72 h
  share of ZB716 in feces excreted between 24 h to 72 h: 10.2%
[5]; rat
  share in urine accounted for in urinary excretion 72 hours after oral dosage: less than 1%
[5]; rat, oral, 24-72 h
  share of ZB716 in urine excreted between 24 h to 72 h: 34.4%
[5]; rat, oral, before 24 h
  share of ZB716 in urine excreted before 24 h: about 63.7%
[6]
  number of direct or indirect oxidative metabolites identified: eight
[8]; [10]
  AUC(0-t): 1300 ng·h/mL
  MRT inf: 18.4 h
  Tmax: 2 h
  concentration at 1 h: 130 ng/mL
  concentration at 4 h: 87.1 ng/mL
  concentration at 8 h: 26.4 ng/mL
  concentration at 48 h: 6.91 ng/mL
  k el: 1.11e-05 s⁻¹
[8]; in vivo, observed in mice (ref 27-28) and again in rats in this study
  share of ZB716 metabolized to fulvestrant: 10-30%
[8]; rat, oral 10 mg/kg
  AUC 0-inf_obs: 1451.82 ng·h/mL
  Cmax: 158.12 ng/mL
  Vz/Fobs (apparent volume of distribution during terminal phase): 13.97 (mg/kg)/(ng/mL)
[8]; rat, oral 10 mg/kg, noncompartment extravascular model
  t1/2: 17.03 h
[8]; rat, single oral dose 10 mg/kg, within 2 hours after peak
  loss of plasma concentration from 2 h to 4 h: 44.9%

## CC12CCC3c4ccc(O)cc4CC(CCCCCCCCC[S+]([O-])CCCC(F)(F)C(F)(F)F)C3C1CCC2OC1OC(C(=O)O)C(O)C(O)C1O (stereo not drawn) [FU-17-glucuronide]
[9]
  share of fulvestrant glucuronidation products: 5-10%
